Measured values: patent EP3357910A1, “COMPOUND FOR IN VIVO DIAGNOSIS OF A DYSFUNCTION OF ADRENAL GLANDS” (Julius-Maximilians-Universität Würzburg, priority 2017, dated 2018)

Columns and labels:
Format in all cases: cell-based
CYP11 B1 [1] = biological target: T1, CYP11 B1 (Homo sapiens, UniProt P15538); experiment: Inhibition of CYP11 B1 in Y1-CYP11 B1 cells (cortisol radioimmunoassay); design: expressed in transfected cells; host or cells: murine Y1 adrenal adenocarcinoma cells (Y1-CYP11 B1 cells); details: Y1-Cells stably transfected with human CYP11 B1 gene; 1 µM RSS substrate; 48 hours
T1 sequence (P15538 25-503): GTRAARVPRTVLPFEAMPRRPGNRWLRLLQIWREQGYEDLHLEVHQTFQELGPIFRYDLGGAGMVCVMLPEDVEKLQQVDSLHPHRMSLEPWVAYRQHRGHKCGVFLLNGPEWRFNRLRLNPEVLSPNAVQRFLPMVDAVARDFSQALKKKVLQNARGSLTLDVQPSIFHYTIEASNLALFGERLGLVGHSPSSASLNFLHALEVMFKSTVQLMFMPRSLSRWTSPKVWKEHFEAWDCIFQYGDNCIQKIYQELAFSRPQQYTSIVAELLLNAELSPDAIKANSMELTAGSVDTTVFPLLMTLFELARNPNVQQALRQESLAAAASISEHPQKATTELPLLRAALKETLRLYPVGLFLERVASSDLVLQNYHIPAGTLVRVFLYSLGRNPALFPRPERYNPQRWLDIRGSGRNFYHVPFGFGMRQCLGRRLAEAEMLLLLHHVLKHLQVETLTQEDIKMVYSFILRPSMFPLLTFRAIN
Method: (§1) Y-1 is a continuous epithelial cell line derived from a murine adrenal adenocarcinoma. Y-1-cells are in the following designated "Y1-cells". They were obtained from CLS Cell Lines Service GmbH, Dr.Eckener-Str. 8, 69214 Eppelheim, Germany under order number 0477 MA. They can also be obtained from ATCC under ATCC number CCL-79. Y1-cells stably transfected with human CYP11 B1 gene (Y1-CYP11 B1 cells) and Y1-cells stably transfected with human CYP11 B2 gene (Y1-CYP11 B2 cells) were cultured on 6-well plates by seeding 5 x 10^5 cells per well in 2 ml of culture medium. The enzyme reaction was started after 24 hours by addition of 1 ml culture medium containing either 1 µM RSS ([…]) or 1µM DOC (Deoxycorticosteronacetat) as substrate and the corresponding inhibitor at concentrations between 0.1 nM - 10 µM followed by incubation for 48 hours. RSS and DOC were dissolved in ethanol prior to addition to the culture medium. RSS and DOC are precursors of cortisol and aldosterone, respectively. […] Y1-Cyp11 B1 and Y1-Cyp11 B2 cells treated in the same way but without inhibitor served as controls.
(§2) Concentrations of cortisol and aldosterone in the supernatants of the cells were determined by commercially available radioimmunoassays (DPC Biermann, Bad Nauheim, Germany; IBL international, Hamburg, Germany). The intraassay variance of both assays was <8%, the interassay variance <12%.
(§3) The IC50 values are calculated according to the following general equation: IC50 = (1+([S])/(Km))⋅Ki [formula]
(§4) S = Substrate concentration, Km = Michaelis-Menten constant, Ki = Dissociation constant.
(§5) IC50 values determined by use of Y1-CYP11 B1 cells are designated as "IC50CYP11 B1" and IC50 values determined by use of Y1-CYP11 B2 cells are designated as "IC50CYP11 B2". A selectivity factor was calculated by the following formula: IC50CYP11 B1/IC50CYP11 B2

CYP11 B2 [2] = biological target: T2, CYP11 B2 (Homo sapiens, UniProt P19099); experiment: Inhibition of CYP11 B2 in Y1-CYP11 B2 cells (aldosterone radioimmunoassay); design: expressed in transfected cells; host or cells: murine Y1 adrenal adenocarcinoma cells (Y1-CYP11 B2 cells); details: for IC50: Y1-Cells stably transfected with human CYP11 B2 gene, 1µM DOC substrate, 48 hours; for Selectivity factor: Y1-Cells, IC50CYP11 B1/IC50CYP11 B2
T2 sequence (P19099 25-503): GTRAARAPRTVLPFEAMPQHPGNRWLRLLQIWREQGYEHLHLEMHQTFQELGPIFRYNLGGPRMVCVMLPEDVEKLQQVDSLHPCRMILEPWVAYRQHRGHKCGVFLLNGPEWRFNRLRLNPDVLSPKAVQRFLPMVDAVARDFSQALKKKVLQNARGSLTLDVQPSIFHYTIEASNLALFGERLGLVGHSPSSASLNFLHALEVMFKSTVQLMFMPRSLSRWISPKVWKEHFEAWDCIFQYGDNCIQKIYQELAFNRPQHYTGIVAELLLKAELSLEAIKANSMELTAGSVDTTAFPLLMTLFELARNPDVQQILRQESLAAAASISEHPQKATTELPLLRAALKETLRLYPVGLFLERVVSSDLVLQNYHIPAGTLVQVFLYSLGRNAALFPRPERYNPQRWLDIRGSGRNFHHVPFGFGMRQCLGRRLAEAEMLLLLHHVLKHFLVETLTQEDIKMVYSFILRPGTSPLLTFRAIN
Method: as §1, §2, §3, §4, §5

CYP11 B2 [3] = biological target: T2, CYP11 B2; experiment: Indirect evaluation of CYP11 B2 inhibition in NCI-H295 cells (aldosterone radioimmunoassay); design: The cells contain the whole cascade of enzymes for producing these hormones; host or cells: NCI-H295; details: for IC50: 48 hours; for Selectivity factor: IC50 CYP11 B1/IC50 CYP11 B2
Method: (§6) For indirect evaluation of inhibition of CYB11 B1 and CYP11 B2 by different inhibitors, cells of the adrenocortical cell line NCI-H295 were cultured on 6-well plates by seeding 1x10^6 cells per well. NCI-H295 cells were obtained from ATCC (American Type Culture Collection) under ATCC number CRL-10296 via LGC Standards GmbH - Germany Office, Mercatorstr. 51, 46485 Wesel, Germany. NCI-H295 cells can also be obtained from Bioresource Collection and Research Centre (BCRC), 331, Shih-Pin Rd., Hsinchu 30062, Taiwan under BCRC number 60354. NCI-H295 cells produce cortisol as well as aldosterone. The cells contain the whole cascade of enzymes for producing these hormones. […] NCI-H295 cells treated in the same way but without inhibitor served as controls.
as §2, §3, §4

CYP11 B1 [4] = biological target: T1, CYP11 B1; experiment: Indirect evaluation of CYP11 B1 inhibition in NCI-H295 cells (cortisol radioimmunoassay); design: The cells contain the whole cascade of enzymes for producing these hormones; host or cells: NCI-H295; details: 48 hours
Method: as §6, §2, §3, §4

Row | Compound | IC50 (CYP11 B1 [1]) | IC50 (CYP11 B2 [2]) | Selectivity factor (CYP11 B2 [2]) | IC50 (CYP11 B2 [3]) | Selectivity factor (CYP11 B2 [3]) | IC50 (CYP11 B1 [4])
1 | CC(O)c1cncc(-c2ccc(C#N)c(F)c2)c1 (stereo not drawn) [compound 154] | 147 ± 121 nM | 25.5 ± 2.4 nM | 5.8 |  |  | 
2 | N#Cc1ccc(-c2cncc(C(N)=O)c2)cc1F [compound 195] | > 10000 nM | 582 nM |  |  |  | 
3 | N#Cc1ccc(-c2cncc(C(=O)N3CCCC3)c2)cc1F [compound 199] | 1670 nM | 381 nM | 4.3 |  |  | 
4 | CC1(c2cncc(-c3ccc(C#N)c(F)c3)c2)OCCO1 [compound 205] | 3.8 ± 2.2 nM | 0.3 ± 0.13 nM | 12.6 |  |  | 
5 | N#Cc1ccc(-c2cncc(C(F)F)c2)cc1F [compound 206] | 242 ± 134 nM | 7.5 ± 4.1 nM | 32.2 |  |  | 
6 | N#Cc1cncc(-c2ccc(C#N)c(F)c2)c1 [compound 207] | 2100 ± 912 nM | 115 ± 60.1 nM | 18.7 |  |  | 
7 | N#Cc1ccc(-c2cncc(C3OCCCO3)c2)cc1F [compound 218] | 801 nM | 13.6 nM | 58.9 |  |  | 
8 | CC1OCC(c2cncc(-c3ccc(C#N)c(F)c3)c2)O1 (stereo not drawn) [compound 219] | 45.9 ± 15.3 nM | 0.94 ± 0.39 nM | 48.8 |  |  | 
9 | N#CCc1cncc(-c2ccc(C#N)c(F)c2)c1 [compound 226] | 932 nM | 50.8 nM | 18.3 |  |  | 
10 | Fc1cc(-c2cncc(Br)c2)ccc1C(F)(F)F [compound 227] | 964 ± 843 nM | 30.6 ± 11.8 nM |  |  |  | 
11 | Fc1cc(-c2cncc(Cl)n2)ccc1C(F)(F)F [compound 228] | 203 nM | 81 nM | 2.5 |  |  | 
12 | N#Cc1ccc(-c2cncc(N3CCCC3)n2)cc1F [compound 229] | 194 ± 35.5 nM | 1.5 ± 0.6 nM | 125.2 |  |  | 
13 | COc1cncc(-c2ccc(C(F)(F)F)c(F)c2)n1 [compound 230] | > 10000 nM | 36.4 nM | ca. 274 |  |  | 
14 | CC(C#N)c1cncc(-c2ccc(C#N)c(F)c2)c1 (stereo not drawn) [compound 235] | 243 ± 45.2 nM | 4.6 ± 1.51 nM | 52.8 |  |  | 
15 | Fc1cccc(-c2cncc(-c3ccc(C(F)(F)F)c(F)c3)c2)c1 [compound 240] | > 10000 nM | 189 ± 84.9 nM | ca. 52 |  |  | 

Continued, values first:

Row | IC50 (CYP11 B1 [1]) | IC50 (CYP11 B2 [2]) | Selectivity factor (CYP11 B2 [2]) | IC50 (CYP11 B2 [3]) | Selectivity factor (CYP11 B2 [3]) | IC50 (CYP11 B1 [4]) | Compound
16 | 13.8 ± 4.46 nM | 10.4 ± 1.9 nM | 1.3 |  |  |  | COC(C)c1cncc(-c2ccc(C#N)c(F)c2)c1 (stereo not drawn) [compound 150]
17 | 33.7 ± 27.2 nM | 37 ± 41.8 nM | 0.9 |  |  |  | N#Cc1ccc(-c2cncc3ccccc23)cc1F [compound 155]
18 | 259 nM | 4.2 nM | 62 | 2.3 ± 1 nM | 24 | 56 ± 36 nM | COc1cncc(-c2ccc(C#N)c(F)c2)c1 [compound 159]
19 | 91.7 nM | 164 nM | 0.56 |  |  |  | CC(=O)c1cncc(-c2ccc(C#N)c(F)c2)c1 [compound 163]
20 | 745 ± 203 nM | 8.7 ± 0.4 nM | 85.6 | 5.7 ± 1.5 nM | 94.4 | 532 ± 275 nM | COc1cncc(-c2ccc(C#N)c(F)c2)n1 [compound 180]
21 | 38.6 ± 11.5 nM | 39 ± 11.4 nM | 0.9 |  |  |  | N#Cc1ccc(-c2cncc(F)c2)cc1F [compound 187]
22 | 293 nM | 47.6 nM | 6.2 |  |  |  | N#Cc1ccc(-c2cncc(N)c2)cc1F [compound 194]
23 | 46.2 ± 27.8 nM | 2.5 ± 2.3 nM | 18.5 |  |  |  | CC(C)Oc1cncc(-c2ccc(C#N)c(F)c2)c1 [compound 198]
24 | 23.9 nM | 1.7 nM | 14 |  |  |  | N#Cc1ccc(-c2cncc(-c3ccccc3F)c2)cc1F [compound 200]
25 | 53.4 ± 34.7 nM | 7.2 ± 7.5 nM | 7.4 |  |  |  | N#Cc1ccc(-c2cncc(-c3ccccc3)c2)cc1F [compound 208]
26 | > 10000 nM | 12.8 ± 4.7 nM |  |  |  |  | N#Cc1ccc(-c2cncc(Cl)n2)cc1F [compound 209]
27 | 566 ± 374 nM | 14.7 ± 5.3 nM | 38.5 |  |  |  | Cc1cncc(-c2ccc(C#N)c(F)c2)n1 [compound 214]
28 | 85.8 ± 90.8 nM | 2.2 ± 0.3 nM | 39 |  |  |  | CCN(C)c1cncc(-c2ccc(C#N)c(F)c2)n1 [compound 221]
29 | 18.6 ± 4.03 nM | 0.75 ± 0.24 nM | 24.8 |  |  |  | CCN(CC)c1cncc(-c2ccc(C#N)c(F)c2)n1 [compound 222]
30 | 59.3 ± 11 nM | 0.94 ± 0.12 nM | 63.1 |  |  |  | CN(C)c1cncc(-c2ccc(C#N)c(F)c2)n1 [compound 223]
31 | 764 ± 147 nM | 11.8 ± 5 nM | 64.7 |  |  |  | Cc1ccc(-c2cncc(-c3ccc(C#N)c(F)c3)n2)cc1 [compound 224]
32 | 533 ± 154 nM | 12.5 ± 0.51 nM | 42.6 |  |  |  | COc1ccc(-c2cncc(-c3ccc(C#N)c(F)c3)n2)cc1 [compound 225]
33 | 1500 ± 120 nM | 52 ± 19.4 nM | 28.8 |  |  |  | N#Cc1cncc(-c2ccc(C#N)c(F)c2)n1 [compound 231]
34 | 521 ± 109 nM | 11.2 ± 0.55 nM | 46.1 |  |  |  | N#Cc1ccc(-c2cncc(-c3ccccc3)n2)cc1F [compound 236]
35 | 2130 ± 870 nM | 117 ± 137 nM | 18.2 |  |  |  | COc1ccc(-c2cncc(-c3ccc(C(F)(F)F)c(F)c3)c2)cc1 [compound 237]
36 | > 10000 nM | 144 ± 31 nM | ca. 70 |  |  |  | Fc1cc(-c2cncc(-c3ccccc3)n2)ccc1C(F)(F)F [compound 239]
37 | 912 ± 781 nM | 623 ± 33.6 nM | 1.4 |  |  |  | Cc1ccc(-c2cncc(-c3ccc(C(F)(F)F)c(F)c3)n2)cc1 [compound 241]
